{"source": "paper PMC4498294", "about": "“Tetrahydroisoquinolines affect the whole-cell phenotype of Mycobacterium tuberculosis by inhibiting the ATP-dependent MurE ligase” (Journal of Antimicrobial Chemotherapy, 2015)", "key": {"M. tuberculosis H37Rv": {"tested_on": "M. tuberculosis H37Rv", "settings": "virulent M. tuberculosis H37Rv strain; cited from earlier work"}, "CYP 2D6": {"target": "T1, CYP 2D6 (Homo sapiens, UniProt P10635)", "T1 construct": "purchased; host or cells: baculosomes (insect-cell microsomes; own knowledge)", "T1 sequence (P10635 whole entry)": "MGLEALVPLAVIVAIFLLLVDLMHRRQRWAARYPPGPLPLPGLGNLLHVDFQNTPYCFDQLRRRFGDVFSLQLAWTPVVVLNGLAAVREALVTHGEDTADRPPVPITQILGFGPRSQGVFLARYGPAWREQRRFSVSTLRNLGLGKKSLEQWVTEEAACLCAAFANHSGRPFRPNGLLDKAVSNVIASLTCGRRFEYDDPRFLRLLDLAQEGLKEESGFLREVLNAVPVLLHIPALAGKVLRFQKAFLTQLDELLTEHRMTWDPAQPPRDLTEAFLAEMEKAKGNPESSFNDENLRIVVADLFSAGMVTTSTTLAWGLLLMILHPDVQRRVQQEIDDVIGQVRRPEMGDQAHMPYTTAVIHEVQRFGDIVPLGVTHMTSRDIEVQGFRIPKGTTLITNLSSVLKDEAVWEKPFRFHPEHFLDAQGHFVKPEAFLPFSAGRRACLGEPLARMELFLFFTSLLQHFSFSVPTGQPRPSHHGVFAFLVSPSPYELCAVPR", "assay": "CYP450 inhibition assay, CYP 2D6", "assay_type": "in vitro ADME", "set-up": "dose or concentration left out as unconfirmed", "settings": "CYP baculosomes with recombinant human CYP2D6, probe fluorogenic substrate (not named); human recombinant enzymes; read-out: Mean % inhibtion CYP 2D6", "experimental": "(§1) The compounds originally dissolved in DMSO were added to PBS to give a resulting concentration of […]. CYP baculosomes containing cDNA for a single human P450 isozyme, the fluorogenic substrate and the NADPH were added to the test solution. The reaction was incubated at 37°C for at least 1 h. Fluorogenic substrates metabolized by CYP enzymes result in highly fluorescent products in aqueous solution. The inhibition of CYP prevents this metabolism, which corresponds to a decrease in the fluorescence signal. The fluorescence was measured on a plate reader."}, "[1]": {"assay": "Human microsome stability assay", "assay_type": "in vitro ADME", "set-up": "half-life: dose or concentration left out as unconfirmed", "experimental": "(§2) Microsomes and NADPH were then added to the solution and the reaction was incubated at 37°C for up to 60 min. Acetonitrile (300 μL) with internal standard was added to stop the incubation. The samples were centrifuged and the supernatant was then analysed by HPLC-MS/MS to detect the parent compound."}, "P-glycoprotein": {"target": "P-glycoprotein (Homo sapiens, UniProt P08183)", "sequence (P08183 whole entry)": "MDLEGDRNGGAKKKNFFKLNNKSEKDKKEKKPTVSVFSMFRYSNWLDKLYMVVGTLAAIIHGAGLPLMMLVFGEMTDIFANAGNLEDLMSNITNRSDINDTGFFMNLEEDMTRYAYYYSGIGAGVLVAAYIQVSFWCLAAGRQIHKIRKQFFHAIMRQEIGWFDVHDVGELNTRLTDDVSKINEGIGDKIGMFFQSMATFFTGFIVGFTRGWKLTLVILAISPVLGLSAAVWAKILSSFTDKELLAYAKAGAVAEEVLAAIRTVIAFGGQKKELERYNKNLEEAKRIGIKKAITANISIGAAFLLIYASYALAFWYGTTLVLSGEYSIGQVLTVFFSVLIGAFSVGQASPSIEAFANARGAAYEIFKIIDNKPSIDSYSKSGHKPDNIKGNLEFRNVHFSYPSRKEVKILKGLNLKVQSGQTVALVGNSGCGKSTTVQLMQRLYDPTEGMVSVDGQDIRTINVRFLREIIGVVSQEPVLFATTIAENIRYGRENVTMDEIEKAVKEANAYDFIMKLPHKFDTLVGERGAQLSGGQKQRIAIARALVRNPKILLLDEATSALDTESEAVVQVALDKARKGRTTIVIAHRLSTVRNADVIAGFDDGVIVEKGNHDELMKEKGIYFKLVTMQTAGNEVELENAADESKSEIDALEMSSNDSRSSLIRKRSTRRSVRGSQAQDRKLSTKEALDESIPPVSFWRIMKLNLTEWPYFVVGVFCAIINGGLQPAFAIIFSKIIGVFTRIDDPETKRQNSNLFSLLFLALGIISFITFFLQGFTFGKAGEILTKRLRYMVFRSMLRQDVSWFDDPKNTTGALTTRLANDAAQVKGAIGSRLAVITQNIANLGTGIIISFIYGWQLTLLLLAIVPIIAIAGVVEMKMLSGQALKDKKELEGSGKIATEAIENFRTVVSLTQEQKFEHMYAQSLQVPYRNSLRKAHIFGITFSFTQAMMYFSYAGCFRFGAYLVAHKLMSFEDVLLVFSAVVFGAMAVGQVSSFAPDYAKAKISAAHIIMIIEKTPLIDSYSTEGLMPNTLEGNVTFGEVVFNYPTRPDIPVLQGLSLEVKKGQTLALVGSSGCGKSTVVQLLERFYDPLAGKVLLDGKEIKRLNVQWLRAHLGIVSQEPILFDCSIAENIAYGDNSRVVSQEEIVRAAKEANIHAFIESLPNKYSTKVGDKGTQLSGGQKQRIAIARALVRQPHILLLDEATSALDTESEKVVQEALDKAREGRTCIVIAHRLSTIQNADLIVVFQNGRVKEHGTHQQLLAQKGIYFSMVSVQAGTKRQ", "assay": "in vitro", "settings": "dog, MDCK-MDR1", "experimental": "All dose solutions contained 10 μM propranolol as an internal standard. MDCK cells carrying the MDR-1 gene were used to seed filters that were exposed to a fixed volume of the donor solution containing the compound of interest. The compound's ability to traverse the monolayer and appear in the receiver compartment was measured over a 30 min period. Bidirectional permeability measurements were derived by examining the transfer of compound from both the apical to the basolateral compartment and vice versa. Sample analysis was conducted using LC-MS/MS with the detection settings optimized for each test compound."}, "[2]": {"assay": "Human hepatocyte stability assay", "assay_type": "in vitro ADME", "set-up": "half-life / hepatocyte CLint: dose or concentration left out as unconfirmed", "experimental": "as §2, with “The compounds originally dissolved in DMSO were added to PBS to give a resulting concentration of 1 mM. Hepatocytes” for “Microsomes and NADPH”, “120” for “60”, “Acetonitrile” for “Acetonitrile (300 μL)”"}, "[3]": {"target": "MurE (Rv2158c) protein of M. tuberculosis H37Rv (Mycobacterium tuberculosis, UniProt P9WJL3)", "sequence (P9WJL3 whole entry, looked up)": "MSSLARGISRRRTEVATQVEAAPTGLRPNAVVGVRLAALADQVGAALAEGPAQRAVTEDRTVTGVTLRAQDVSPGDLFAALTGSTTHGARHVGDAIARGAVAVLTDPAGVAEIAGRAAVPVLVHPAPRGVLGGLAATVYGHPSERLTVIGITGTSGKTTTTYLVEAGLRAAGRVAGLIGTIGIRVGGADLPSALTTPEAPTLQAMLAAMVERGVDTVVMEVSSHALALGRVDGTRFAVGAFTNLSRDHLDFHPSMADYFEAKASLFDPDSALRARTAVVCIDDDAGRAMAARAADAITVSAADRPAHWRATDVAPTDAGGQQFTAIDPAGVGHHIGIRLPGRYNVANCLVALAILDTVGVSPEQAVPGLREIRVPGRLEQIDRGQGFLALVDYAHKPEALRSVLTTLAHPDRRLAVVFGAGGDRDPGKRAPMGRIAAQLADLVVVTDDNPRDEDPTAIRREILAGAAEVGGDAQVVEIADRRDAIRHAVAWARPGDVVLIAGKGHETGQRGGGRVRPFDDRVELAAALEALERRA", "assay": "Mtb-MurE HPLC inhibition assay", "assay_type": "biochemical", "settings": "HPLC assay, 37°C 30 min"}, "CYP 2C9": {"target": "T2, CYP 2C9 (Homo sapiens, UniProt P11712)", "T2 construct": "purchased; host or cells: baculosomes (insect-cell microsomes; own knowledge)", "T2 sequence (P11712 whole entry)": "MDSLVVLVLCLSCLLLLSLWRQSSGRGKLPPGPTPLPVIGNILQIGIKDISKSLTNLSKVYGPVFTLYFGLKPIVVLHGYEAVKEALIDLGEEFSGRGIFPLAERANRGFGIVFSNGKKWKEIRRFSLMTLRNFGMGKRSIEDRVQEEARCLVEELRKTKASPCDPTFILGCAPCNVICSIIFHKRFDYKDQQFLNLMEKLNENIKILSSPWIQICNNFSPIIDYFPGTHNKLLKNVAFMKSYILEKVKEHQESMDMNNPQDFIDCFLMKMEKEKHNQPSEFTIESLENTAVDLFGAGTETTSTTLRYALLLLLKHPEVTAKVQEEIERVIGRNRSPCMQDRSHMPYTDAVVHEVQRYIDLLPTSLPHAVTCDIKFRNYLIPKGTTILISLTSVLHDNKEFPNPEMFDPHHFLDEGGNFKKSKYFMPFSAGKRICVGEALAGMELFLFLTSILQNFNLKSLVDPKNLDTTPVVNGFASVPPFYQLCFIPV", "assay": "CYP450 inhibition assay, CYP 2C9", "assay_type": "in vitro ADME", "set-up": "dose or concentration left out as unconfirmed", "settings": "CYP baculosomes with recombinant human CYP2C9, probe fluorogenic substrate (not named); human recombinant enzymes; read-out: Mean % inhibtion CYP 2C9", "experimental": "as §1"}, "CYP 2C19": {"target": "T3, CYP 2C19 (Homo sapiens, UniProt P33261)", "T3 construct": "purchased; host or cells: baculosomes (insect-cell microsomes; own knowledge)", "T3 sequence (P33261 whole entry)": "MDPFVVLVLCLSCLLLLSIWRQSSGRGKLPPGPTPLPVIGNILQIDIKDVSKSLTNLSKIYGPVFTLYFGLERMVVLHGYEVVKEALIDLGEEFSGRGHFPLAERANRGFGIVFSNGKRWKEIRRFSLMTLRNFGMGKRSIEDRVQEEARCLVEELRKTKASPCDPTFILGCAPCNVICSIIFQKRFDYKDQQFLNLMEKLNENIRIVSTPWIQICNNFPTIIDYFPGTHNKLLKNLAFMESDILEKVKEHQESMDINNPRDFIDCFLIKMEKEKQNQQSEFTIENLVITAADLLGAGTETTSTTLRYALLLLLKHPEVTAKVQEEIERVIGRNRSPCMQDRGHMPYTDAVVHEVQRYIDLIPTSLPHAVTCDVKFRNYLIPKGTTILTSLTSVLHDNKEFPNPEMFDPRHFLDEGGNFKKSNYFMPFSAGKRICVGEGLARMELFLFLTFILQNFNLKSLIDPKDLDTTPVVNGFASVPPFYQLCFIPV", "assay": "CYP450 inhibition assay, CYP 2C19", "assay_type": "in vitro ADME", "set-up": "dose or concentration left out as unconfirmed", "settings": "CYP baculosomes with recombinant human CYP2C19, probe fluorogenic substrate (not named); human recombinant enzymes; read-out: Mean % inhibtion CYP 2C19", "experimental": "as §1"}, "[4]": {"tested_on": "MDCK cells carrying the MDR-1 gene", "assay": "MDCK cell permeability assay", "assay_type": "in vitro ADME, canine", "settings": "MDCK MDR-1 monolayer, 10 μM, 30 min, apical to basolateral"}, "[5]": {"assay": "MDCK cell permeability assay", "assay_type": "in vitro ADME, canine", "settings": "dog, MDCK-MDR1; MDCK MDR-1 monolayer, class"}, "MDR-1": {"tested_on": "MDR-1", "assay": "MDCK cell permeability assay", "assay_type": "in vitro ADME, canine", "settings": "dog, MDCK-MDR1, MDCK MDR-1 monolayer, 10 μM, 30 min"}, "M. bovis BCG Pasteur": {"tested_on": "M. bovis BCG Pasteur", "assay": "microbe, parasite or virus in culture", "assay_type": "cell-based", "settings": "Mycobacterium tuberculosis variant bovis BCG, BCG"}, "CYP 1A2": {"target": "T4, CYP 1A2 (Homo sapiens, UniProt P05177)", "T4 construct": "purchased; host or cells: baculosomes (insect-cell microsomes; own knowledge)", "T4 sequence (P05177 1-516)": "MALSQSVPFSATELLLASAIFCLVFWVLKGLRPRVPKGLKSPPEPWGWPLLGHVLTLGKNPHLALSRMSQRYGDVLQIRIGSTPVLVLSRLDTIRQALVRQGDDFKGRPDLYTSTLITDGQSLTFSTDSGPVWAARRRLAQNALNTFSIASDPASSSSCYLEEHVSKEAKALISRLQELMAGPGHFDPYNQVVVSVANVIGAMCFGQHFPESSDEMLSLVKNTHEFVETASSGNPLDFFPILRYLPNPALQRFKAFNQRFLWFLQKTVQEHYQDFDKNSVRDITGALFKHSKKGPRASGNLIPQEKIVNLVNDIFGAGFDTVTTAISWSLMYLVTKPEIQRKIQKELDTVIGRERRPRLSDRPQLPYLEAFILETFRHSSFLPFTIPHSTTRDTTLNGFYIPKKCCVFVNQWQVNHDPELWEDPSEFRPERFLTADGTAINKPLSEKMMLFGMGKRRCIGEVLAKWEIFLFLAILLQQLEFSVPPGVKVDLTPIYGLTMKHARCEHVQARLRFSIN", "assay": "CYP450 inhibition assay, CYP 1A2", "assay_type": "in vitro ADME", "set-up": "dose or concentration left out as unconfirmed", "settings": "CYP baculosomes with recombinant human CYP1A2, probe fluorogenic substrate (not named); human recombinant enzymes; read-out: Mean % inhibtion CYP 1A2", "experimental": "as §1"}, "[6]": {"tested_on": "murine macrophage cell line RAW264.7", "assay": "Eukaryotic cell toxicity assay, RAW264.7", "assay_type": "cell-based", "settings": "Mus musculus, read-out: GIC50 RAW264.7"}, "CYP 3A4": {"target": "T5, CYP 3A4 (Homo sapiens, UniProt P08684)", "T5 construct": "purchased; host or cells: baculosomes (insect-cell microsomes; own knowledge)", "T5 sequence (P08684 whole entry)": "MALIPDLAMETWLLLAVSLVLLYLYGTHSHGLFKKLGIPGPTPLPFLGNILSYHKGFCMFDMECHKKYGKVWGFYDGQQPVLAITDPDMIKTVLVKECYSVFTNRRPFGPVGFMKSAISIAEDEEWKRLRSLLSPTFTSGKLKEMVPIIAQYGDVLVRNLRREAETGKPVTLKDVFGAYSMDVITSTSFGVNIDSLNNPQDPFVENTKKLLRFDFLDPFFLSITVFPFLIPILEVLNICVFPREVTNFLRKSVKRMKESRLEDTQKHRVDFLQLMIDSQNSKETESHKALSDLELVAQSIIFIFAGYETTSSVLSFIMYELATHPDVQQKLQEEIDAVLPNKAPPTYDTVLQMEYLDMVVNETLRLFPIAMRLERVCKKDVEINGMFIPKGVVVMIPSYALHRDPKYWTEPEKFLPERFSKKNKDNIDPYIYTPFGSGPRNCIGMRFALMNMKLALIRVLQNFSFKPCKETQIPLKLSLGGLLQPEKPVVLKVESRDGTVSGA", "assay": "CYP450 inhibition assay, CYP 3A4", "assay_type": "in vitro ADME", "set-up": "dose or concentration left out as unconfirmed", "settings": "CYP baculosomes with recombinant human CYP3A4, probe fluorogenic substrate (not named); human recombinant enzymes; read-out: Mean % inhibtion CYP 3A4", "experimental": "as §1"}, "[7]": {"assay": "Aqueous kinetic solubility", "assay_type": "physicochemical", "settings": "aqueous with cosolvent or surfactant or cyclodextrin, kinetic from dmso stock, 5% DMSO in PBS, 21°C", "experimental": "The compounds were equilibrated in 5% DMSO in PBS at 21°C for 24 h. The samples were then centrifuged at 15000 g for 10 min. A 100 μL sample of the supernatant was carefully collected and the soluble amount of compound quantified using LC-MS/MS. A standard curve for each compound was prepared in 100% acetonitrile. Solubility results are reported as low (<0.1 mg/mL), medium (0.1–0.5 mg/mL) and high (>0.5 mg/mL)."}}, "note": "pIC50: −log10 of the molar value. Where two headings read alike, the source gives them in different places.", "data": [{"smiles": "COc1cc2c(cc1OC)-c1c3c(cc4c1[C@H](C2)NCC4)OCO3", "note": "[(-)-Nordicentrine]", "values": [{"measurement": "MIC M. tuberculosis H37Rv", "setting": "M. tuberculosis H37Rv", "value": 12.5, "unit": "µg/mL"}]}, {"smiles": "Oc1ccc(Br)c2c1C(Cc1ccc3c(c1)OCO3)NCC2", "note": "(stereo not drawn) [Compound 28]", "values": [{"measurement": "inhibition", "setting": "CYP 2D6", "value": 92.9, "unit": "%"}, {"measurement": "t1/2 microsomes", "setting": "[1]; human liver microsomes", "value": 9.8, "unit": "min"}, {"measurement": "Mean % microsome turnover", "setting": "[1]; human liver microsomes, 0 min", "value": "-5.33e-15", "unit": "%"}, {"measurement": "Mean compound remaining", "setting": "[1]; human liver microsomes, 0 min", "value": 100.00}, {"measurement": "Microsomal stability", "setting": "[1]; human liver microsomes, 0 min", "value": 4.60}, {"measurement": "Mean % microsome turnover", "setting": "[1]; human liver microsomes, 15 min", "value": 64.61, "unit": "%"}, {"measurement": "Mean compound remaining", "setting": "[1]; human liver microsomes, 15 min", "value": 35.39}, {"measurement": "Microsomal stability", "setting": "[1]; human liver microsomes, 15 min", "value": 3.57}, {"measurement": "Mean % microsome turnover", "setting": "[1]; human liver microsomes, 30 min", "value": 88.00, "unit": "%"}, {"measurement": "Mean compound remaining", "setting": "[1]; human liver microsomes, 30 min", "value": 12.00}, {"measurement": "Microsomal stability", "setting": "[1]; human liver microsomes, 30 min", "value": 2.48}, {"measurement": "Mean % microsome turnover", "setting": "[1]; human liver microsomes, 60 min", "value": 92.24, "unit": "%"}, {"measurement": "Mean compound remaining", "setting": "[1]; human liver microsomes, 60 min", "value": 7.76}, {"measurement": "Microsomal stability", "setting": "[1]; human liver microsomes, 60 min", "value": 2.03}, {"measurement": "half-life", "setting": "[1]; human, liver microsomes, read-out: t1/2 microsomes", "value": 9.81, "unit": "min"}, {"measurement": "efflux ratio", "setting": "P-glycoprotein", "value": 11.3}, {"measurement": "hepatic extraction ratio", "setting": "[2]; hepatocyte stability assay", "value": "> 0.6"}, {"measurement": "t1/2 hepatocytes", "setting": "[2]; human hepatocytes", "value": 23.2, "unit": "min"}, {"measurement": "half-life", "setting": "[2]; human, hepatocytes, human hepatocytes, read-out: t1/2 hepatocytes", "value": 23.2, "unit": "min"}, {"measurement": "hepatocyte CLint", "setting": "[2]; human, hepatocytes, in vivo hepatic intrinsic clearance prediction values", "value": 17.4, "unit": "µL/min/1e6 cells"}, {"measurement": "pIC50", "setting": "[3]", "value": "> 3.95"}, {"measurement": "inhibition", "setting": "CYP 2C9", "value": 81.8, "unit": "%"}, {"measurement": "inhibition", "setting": "CYP 2C19", "value": 97.5, "unit": "%"}, {"measurement": "Papp A-B", "setting": "[4]", "value": "1.7 cm/sec, x10-6"}, {"measurement": "Papp A→B at 30 min, 10 μM", "setting": "[5]", "value": "< 2", "unit": "×10⁻⁶ cm/s"}, {"measurement": "Papp A→B at 30 min, 10 μM", "setting": "MDR-1; apical to basolateral", "value": 1.7, "unit": "×10⁻⁶ cm/s"}, {"measurement": "Papp B→A at 30 min, 10 μM", "setting": "MDR-1; basolateral to apical", "value": 18.8, "unit": "×10⁻⁶ cm/s"}, {"measurement": "MIC", "setting": "M. bovis BCG Pasteur; 336 h, read-out: MIC M. bovis BCG, SPOTi, 2 weeks at 37°C", "value": 20, "unit": "µg/mL"}, {"measurement": "MIC", "setting": "M. bovis BCG Pasteur; read-out: MIC M. bovis BCG, SPOTi, value in square brackets", "value": 55, "unit": "µM"}, {"measurement": "inhibition", "setting": "CYP 1A2", "value": 81.4, "unit": "%"}, {"measurement": "pIC50", "setting": "[6]; RAW264.7, value in square brackets", "value": 3.89}, {"measurement": "IC50", "setting": "[6]; murine macrophage cell line RAW264.7", "value": 47, "unit": "µg/mL"}, {"measurement": "inhibition", "setting": "CYP 3A4", "value": 93.2, "unit": "%"}, {"measurement": "solubility kinetic at 24 h", "setting": "[7]", "value": 800, "unit": "µg/mL"}, {"measurement": "solubility at 24 h", "setting": "[7]; read-out: aqueous solubility (class)", "value": "> 500", "unit": "µg/mL"}]}]}
